Data from patent EP1598418A1, “STABILISED COMPOSITION FOR FLUORIMETRIC, COLORIMETRIC OR CHEMOLUMINESCENT ASSAYS, KITS CONTAINING SAME AND PRODUCTION METHOD THEREOF” (BIOTOOLS BIOTECHNOLOGICAL & MEDICAL LABORATORIES, S.A., priority 2003, dated 2004).

Legend:
avidin = avidin (Gallus gallus, UniProt P02701); details: avidin/biotin complex; cited from earlier work
FRET probes = assay: Real-time amplification with desiccated, stabilised reaction mixture with FRET probes after storage (Example 1); type: biochemical, P. falciparum; details: conserved at T 4 °C, vs fresh mixture
TaqMan probes = assay: Real-time amplification with desiccated, stabilised reaction mixture with TaqMan probes after storage (Example 2); type: biochemical, P. falciparum; details: conserved at T 4 °C, vs fresh mixture
[1] = tested on: Molecular Beacon (MB) probe; assay: Real-time amplification with desiccated, stabilised reaction mixture with Molecular Beacon probe after storage (Example 3); type: biochemical, P. falciparum; details: conserved at T 4 °C, vs fresh mixture
Scorpion probes = assay: Real-time amplification with desiccated, stabilised reaction mixture with Scorpion probes after storage (Example 4); type: biochemical, M. tuberculosis; details: conserved at T 4 °C, vs fresh mixture
[2] = tested on: reaction mixture with SYBR Green; assay: Real-time amplification with desiccated, stabilised reaction mixture with SYBR Green after storage (Example 5); type: biochemical, oncogenic papillomaviruses; details: conserved at T 4 °C, vs fresh mixture
Method: To test the efficiency of intercalated fluorophores such as SYBR Green included in desiccated and stabilised reaction mixtures, reaction mixtures were prepared for amplifying a 250 bp fragment corresponding to region E6-E7 of oncogenic papillomaviruses, using the same reagents as described in Example 1. In this case the unit "DNA Engine OPTICON™ 2 System" (MJ Research) was used. […] Also to each phial was added […] of SYBR Green 1 (Molecular probes).
Various tubes were prepared as described above, adding to each the suitable volume of each stabilising mixture shown in Table 1.
In parallel, in order to check the evolution of the activity of the desiccated tubes, DNA samples were amplified using a fresh mixture in the same amplification conditions.
The result of the amplification reaction was analysed in every case by inspecting the fluorescence curve and determining the crossing point, following the instructions of the equipment software, for each reaction tube both fresh and desiccated and stabilised. […] The samples of patients infected with oncogenic HPV gave positive results in every case, while patients infected with non-oncogenic HPV, or not infected with HPV, gave negative results in every case.

[3] = tested on: DTCS Quick Start Master Mix; assay: Sequencing reaction with desiccated, stabilised mixture with fluorescent terminators after storage (Example 6); type: biochemical, human papillomavirus; details: conserved at T 4 °C, vs fresh mixture
Method: To test the possibility of gelling reaction mixtures for sequencing nucleic acids the CEQ 200 Dye Terminator Cycle Sequencing (DTCS) Quick Start Kit (Beckman Coulter) was employed, which uses a PCR sequencing system in a single tube by incorporating four different fluorescent terminators. The sequencing reactions were later analysed in a CEQ 2000 XL DNA Analysis System (Beckman Coulter) capillary electrophoresis automatic sequencing system.
Reaction mixtures were prepared containing 4 microlitres of DTCS Quick Start Master Mix, 1 microlitre of universal primer M13-17 and the suitable volume of each stabilising mixture shown in Table 1.
In parallel, in order to check the evolution of the activity of the desiccated and stabilised tubes, the same plasmid was sequenced using a fresh sequencing mixture in standard conditions. Finally, the sequencing reactions were analysed in the CEQ 200XL system following the supplier's instructions.

[4] = tested on: oligonucleotides chemically modified by including biotin and/or digoxygenin groups; assay: Amplification with desiccated biotin/digoxygenin oligonucleotides and colorimetric ELISA plate assay (Example 7); type: biochemical, oncogenic HPV; details: conserved at T 4 °C, vs fresh mixture
Method: To do so, 4 oligonucleotides were designed that hybridised with the genome of region E6-E7 of oncogenic HPV species.
To do so, an ELISA microplate with a high-binding capacity to streptoavidin (Biospa) was activated following a standard fixing protocol. Then, after blocking the plate by incubation with gelatine, the amplified products of the stabilising mixtures 1, 2 and 3 described in Example 7.A were analysed by a colorimetry assay according to the following experimental process: • A.- Amplification products using an onligonucleotide marked with digoxygenin (mixture 1 in Example 7.A). The biotinated probe A11 was fixed to the plate and the amplified product was hybridised. […] The amplification product was fixed to the plate with the first biotinilate and then hybridised with the first A12 marked with digoxygenin.

[5] = tested on: streptoavidin conjugated with HRP (Str-HRP) and anti-digoxygenin conjugated with alkaline phospatase (anti-DIG-AP); assay: Colorimetric ELISA plate activity test of desiccated, stabilised conjugates (Example 8); type: biochemical, HPV 16; details: conserved at T 4 °C, vs fresh mixture
Method: In 0.2 ml amplification tubes were added 100 microlitres of a 1/250 dilution in a blocking solution of the conjugate Str-HRP (Biospa). In parallel, 0.2 ml phials were prepared in which 100 microlitres were added of a 1/250 dilution in a blocking solution of anti-DIG-AP (Sigma).
For the activity assay of the conjugate anti-DIG-AP an ELISA plate was used in which the dimples had been previously coated with streptoavidin. For the activity assay of conjugate Str-HRP a plate was used instead with dimples previously coated with anti-DIG antibodies. The amplified products were incubated in each plate to allow the immobilisation of the amplicons in the plate.

antidigoxygenin antibody = assay: Colorimetry assay of stabilised protein immobilised in ELISA microplates (Example 10.2); type: biochemical, HPV; details: conserved at T 4 °C, vs fresh mixture
Method: To do so each dimple was incubated with 1µg of antidigoxygenin antibody (Roche).
The amplified product was incubated for 30 minutes in the dimples with the antibody immobilised. The amplified products immobilised in the plate by the union of the digoxygenin group of the amplicons and the immobilised anti-digoxygenin group were analysed by a colorimetric assay. […] The colorimetric reaction was finally analysed by measuring absorption at 415 nm.

[6] = tested on: nucleic acids immobilised in modified glasses; assay: Colorimetric assay of stabilised nucleic acids immobilised in modified glasses (Example 10.3); type: biochemical, HPV 16; details: conserved at T 4 °C, vs fresh mixture
Method: Approach 1. Stabilisation of supports with previously fixed nucleic acids. HPV specific probes were fixed to glass supports pre-treated with polylysiun, aldehyde, epoxy, superepoxy and silane. To do so, in each support slide 1 microlitre spots were applied of the solution of each oligonucleotide at a concentration of 20 µM in the conditions indicated for each glass format. The slides with the immobilised oligonucleotides were then coated with a thin layer of each of the stabilising mixtures and then desiccated in a vacuum oven at 25°C and 50 mbar pressure.
Approach 2. Fixation to the slides of the nucleic acids pre-mixed with the stabilising mixtures. A mixture was prepared of each of the probes with the suitable volumes of the stabilising mixtures described in Table 1. Then the mixtures of oligonucleotides were applied to the various slides with the fixing conditions indicated for each glass format.
To test the viability of each slide prepared, a colorimetric assay was performed with formation of precipitate products. To do so, the slides were washed for 5 minutes in PBS 1X at room temperature to eliminate the protective layer. Then the slides were incubated in the presence of an amplified and previously denatured HPV 16 product using the probes A11 and A12.

[7] = tested on: Anti-digoxygenin antibodies; assay: Colorimetric assay of stabilised proteins immobilised in modified glasses (Example 10.4); type: biochemical, P. falciparum; details: conserved at T 4 °C, vs fresh mixture
Method: To test the possibility of stabilising proteins that have been previously immobilised in pre-treated glass supports, the usual format of microarray systems, two different alternatives were tested as in the previous experiment.
Approach 1. Stabilisation of supports with previously fixed protein. Anti-digoxygenin antibodies were fixed to glass supports pre-treated with aldehyde. To do so, in each support slide 1 microlitre spots were applied of the solution of each protein at a concentration of 30 ng/µl. The slides with the immobilised protein were then coated with a thin layer of each of the stabilising mixtures and then desiccated in a vacuum oven at 25°C and 50 mbar pressure.
Approach 2. Fixation to the slides of the protein pre-mixed with the stabilising mixtures. A mixture was prepared of each of the probes with the suitable volumes of the stabilising mixtures described in Table 1. Then the mixtures of protein were applied to the various slides with the fixing conditions indicated for each glass format.
To test the viability of each slide prepared, a colorimetric assay was performed with formation of precipitate products. To do so, the slides were washed for 5 minutes in PBS 1X at room temperature to eliminate the protective layer.

[8] = tested on: probes marked with biotin or digoxygenin groups; assay: Synthesis of digoxygenin-marked probes with desiccated mixtures and molecular hybridisation test (Example 9); details: conserved at T 4 °C, vs fresh mixture
[9] = tested on: nucleic acids immobilised in ELISA microplates; assay: Amplification and colorimetric detection with stabilised nucleic acids immobilised in ELISA microplates (Example 10.1); details: conserved at T 4 °C, vs fresh mixture

Sequence of avidin (P02701 25-152): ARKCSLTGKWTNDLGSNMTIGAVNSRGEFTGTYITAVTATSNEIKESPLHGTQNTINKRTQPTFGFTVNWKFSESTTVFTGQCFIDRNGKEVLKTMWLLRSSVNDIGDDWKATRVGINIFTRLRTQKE

O=C(O)CCCC[C@@H]1SC[C@@H]2NC(=O)N[C@@H]21 [biotin, Biotin]
dissociation energy (avidin): 21 kcal/mol

NCCCC[C@H](N)C(=O)O [Lysine]
activity of stabilising mixtures (FRET probes): + (+, weak positive, under 50% of the activity of the fresh mixture) | activity of stabilising mixtures (TaqMan probes): + (+, weak positive, under 50% of the activity of the fresh mixture) | activity of stabilising mixtures [1]: + (+, weak positive, under 50% of the activity of the fresh mixture) | activity of stabilising mixtures (Scorpion probes): + (+, weak positive, under 50% of the activity of the fresh mixture) | activity of stabilising mixtures [2]: + (+, weak positive, under 50% of the activity of the fresh mixture) | activity of stabilising mixtures [3]: + (+, weak positive, under 50% of the activity of the fresh mixture) | activity of stabilising mixtures [4]: + (+, weak positive, under 50% of the activity of the fresh mixture) | activity of stabilising mixtures [5]: + (+, weak positive, under 50% of the activity of the fresh mixture) | activity of stabilising mixtures (antidigoxygenin antibody): + (+, weak positive, under 50% of the activity of the fresh mixture) | activity of stabilising mixtures [6]: + (+, weak positive, under 50% of the activity of the fresh mixture) | activity of stabilising mixtures [7]: + (+, weak positive, under 50% of the activity of the fresh mixture) | activity of stabilising mixtures [8]: + (+, weak positive, under 50% of the activity of the fresh mixture) | activity of stabilising mixtures [9]: + (+, weak positive, under 50% of the activity of the fresh mixture)
